Data as given in ChEMBL document CHEMBL3045810, “Synthesis and evaluation of 4-(substituted)-acetylamino-3-mercapto-5-(4-substituted) phenyl-1,2,4-triazole derivatives as antimicrobial agents” (2012).
Calls of active or inactive are those of the source. The calls are words filed in the database; no cut-off is given here.

Tests used:
[1] = test system: Aspergillus niger; assay: Antifungal activity against Aspergillus niger MTCC 3323 at 50 ug/ml by paper disk diffusion method; assay type: functional; conditions: read-out: DIZ
[2] = test system: Pseudomonas aeruginosa; assay: Antibacterial activity against Pseudomonas aeruginosa ATCC 27853 at 30 ug/ml after 24 hr by paper disk diffusion method; assay type: functional; conditions: ATCC 27853, 24 h, read-out: DIZ
[3] = test system: Fusarium oxysporum; assay: Antifungal activity against Fusarium oxysporum MTCC 2087 at 70 ug/ml by paper disk diffusion method; assay type: functional; conditions: read-out: DIZ
[4] = test system: Candida albicans; assay: Antifungal activity against Candida albicans MTCC 227 at 50 ug/ml by paper disk diffusion method; assay type: functional; conditions: read-out: DIZ
[5] = test system: Fusarium oxysporum; assay: Antifungal activity against Fusarium oxysporum MTCC 2087 at 30 ug/ml by paper disk diffusion method; assay type: functional; conditions: read-out: DIZ
[6] = test system: Staphylococcus aureus; assay: Antibacterial activity against Staphylococcus aureus ATCC 25923 at 70 ug/ml after 24 hr by paper disk diffusion method; assay type: functional; conditions: ATCC 25923, 24 h, read-out: DIZ
[7] = test system: Pseudomonas aeruginosa; assay: Antibacterial activity against Pseudomonas aeruginosa ATCC 27853 at 50 ug/ml after 24 hr by paper disk diffusion method; assay type: functional; conditions: ATCC 27853, 24 h, read-out: DIZ
[8] = test system: Candida albicans; assay: Fungicidal activity against Candida albicans MTCC 227; assay type: functional, organism-based
[9] = test system: Aspergillus niger; assay: Fungicidal activity against Aspergillus niger MTCC 3323; assay type: functional, organism-based
[10] = test system: Bacillus subtilis; assay: Antibacterial activity against Bacillus subtilis ATCC 6633 at 30 ug/ml after 24 hr by paper disk diffusion method; assay type: functional; conditions: ATCC 6633, 24 h, read-out: DIZ
[11] = test system: Candida albicans; assay: Antifungal activity against Candida albicans MTCC 227 at 70 ug/ml by paper disk diffusion method; assay type: functional; conditions: read-out: DIZ
[12] = test system: Escherichia coli; assay: Bactericidal activity against Escherichia coli ATCC 8793; assay type: functional, organism-based
[13] = test system: Pseudomonas aeruginosa; assay: Antibacterial activity against Pseudomonas aeruginosa ATCC 27853 at 70 ug/ml after 24 hr by paper disk diffusion method; assay type: functional; conditions: ATCC 27853, 24 h, read-out: DIZ
[14] = test system: Staphylococcus aureus; assay: Antibacterial activity against Staphylococcus aureus ATCC 25923 at 50 ug/ml after 24 hr by paper disk diffusion method; assay type: functional; conditions: ATCC 25923, 24 h, read-out: DIZ
[15] = test system: Pseudomonas aeruginosa; assay: Bactericidal activity against Pseudomonas aeruginosa ATCC 27853; assay type: functional, organism-based
[16] = test system: Escherichia coli; assay: Antibacterial activity against Escherichia coli ATCC 8793 at 50 ug/ml after 24 hr by paper disk diffusion method; assay type: functional; conditions: ATCC 8793, 24 h, read-out: DIZ
[17] = test system: Fusarium oxysporum; assay: Antifungal activity against Fusarium oxysporum MTCC 2087 at 50 ug/ml by paper disk diffusion method; assay type: functional; conditions: read-out: DIZ
[18] = test system: Aspergillus niger; assay: Antifungal activity against Aspergillus niger MTCC 3323 at 70 ug/ml by paper disk diffusion method; assay type: functional; conditions: read-out: DIZ
[19] = test system: Bacillus subtilis; assay: Antibacterial activity against Bacillus subtilis ATCC 6633 at 50 ug/ml after 24 hr by paper disk diffusion method; assay type: functional; conditions: ATCC 6633, 24 h, read-out: DIZ
[20] = test system: Aspergillus niger; assay: Antifungal activity against Aspergillus niger MTCC 3323 at 30 ug/ml by paper disk diffusion method; assay type: functional; conditions: read-out: DIZ
[21] = test system: Fusarium oxysporum; assay: Fungicidal activity against Fusarium oxysporum MTCC 2087; assay type: functional, organism-based
[22] = test system: Escherichia coli; assay: Antibacterial activity against Escherichia coli ATCC 8793 at 30 ug/ml after 24 hr by paper disk diffusion method; assay type: functional; conditions: ATCC 8793, 24 h, read-out: DIZ
[23] = test system: Escherichia coli; assay: Antibacterial activity against Escherichia coli ATCC 8793 at 70 ug/ml after 24 hr by paper disk diffusion method; assay type: functional; conditions: ATCC 8793, 24 h, read-out: DIZ
[24] = test system: Bacillus subtilis; assay: Antibacterial activity against Bacillus subtilis ATCC 6633 at 70 ug/ml after 24 hr by paper disk diffusion method; assay type: functional; conditions: ATCC 6633, 24 h, read-out: DIZ
[25] = test system: Candida albicans; assay: Antifungal activity against Candida albicans MTCC 227 at 30 ug/ml by paper disk diffusion method; assay type: functional; conditions: read-out: DIZ
[26] = test system: Bacillus subtilis; assay: Bactericidal against Bacillus subtilis ATCC 6633; assay type: functional, organism-based
[27] = test system: Staphylococcus aureus; assay: Bactericidal activity against Staphylococcus aureus ATCC 25923; assay type: functional, organism-based
[28] = test system: Staphylococcus aureus; assay: Antibacterial activity against Staphylococcus aureus ATCC 25923 at 30 ug/ml after 24 hr by paper disk diffusion method; assay type: functional; conditions: ATCC 25923, 24 h, read-out: DIZ

CCN(CC)CC(=O)Nn1c(S)nnc1-c1ccc(C)cc1
zone of inhibition at 50 µg/mL [1]: 9.23 mm
zone of inhibition at 30 µg/mL [2]: 7.3 mm
zone of inhibition at 70 µg/mL [3]: 7.33 mm
zone of inhibition at 50 µg/mL [4]: 8.7 mm
zone of inhibition at 30 µg/mL [5]: 6.03 mm
zone of inhibition at 70 µg/mL [6]: 8.2 mm
zone of inhibition at 50 µg/mL [7]: 8.4 mm
Activity [8]: inactive
Activity [9]: inactive
zone of inhibition at 30 µg/mL [10]: 6.4 mm
zone of inhibition at 70 µg/mL [11]: 9.23 mm
Activity [12]: Active
zone of inhibition at 70 µg/mL [13]: 9 mm
zone of inhibition at 50 µg/mL [14]: 7.4 mm
Activity [15]: Active
zone of inhibition at 50 µg/mL [16]: 8.4 mm
zone of inhibition at 50 µg/mL [17]: 6.23 mm
zone of inhibition at 70 µg/mL [18]: 10.2 mm
zone of inhibition at 50 µg/mL [19]: 7.43 mm
zone of inhibition at 30 µg/mL [20]: 8.2 mm
Activity [21]: inactive
zone of inhibition at 30 µg/mL [22]: 7.3 mm
zone of inhibition at 70 µg/mL [23]: 9 mm
zone of inhibition at 70 µg/mL [24]: 8.26 mm
zone of inhibition at 30 µg/mL [25]: 7.13 mm
Activity [26]: Active
Activity [27]: Active
zone of inhibition at 30 µg/mL [28]: 6.36 mm

CCCCN(CCCC)CC(=O)Nn1c(S)nnc1-c1ccc(C)cc1
zone of inhibition at 50 µg/mL [1]: 16.2 mm
zone of inhibition at 30 µg/mL [2]: 12.3 mm
zone of inhibition at 70 µg/mL [3]: 11.4 mm
zone of inhibition at 50 µg/mL [4]: 12.2 mm
zone of inhibition at 30 µg/mL [5]: 8.17 mm
zone of inhibition at 70 µg/mL [6]: 14 mm
zone of inhibition at 50 µg/mL [7]: 13.6 mm
Activity [8]: Active
Activity [9]: Active
zone of inhibition at 30 µg/mL [10]: 10.3 mm
zone of inhibition at 70 µg/mL [11]: 13.2 mm
Activity [12]: Active
zone of inhibition at 70 µg/mL [13]: 14.1 mm
zone of inhibition at 50 µg/mL [14]: 12.1 mm
Activity [15]: Active
zone of inhibition at 50 µg/mL [16]: 12.1 mm
zone of inhibition at 50 µg/mL [17]: 9.2 mm
zone of inhibition at 70 µg/mL [18]: 18 mm
zone of inhibition at 50 µg/mL [19]: 11.2 mm
zone of inhibition at 30 µg/mL [20]: 15.1 mm
Activity [21]: Active
zone of inhibition at 30 µg/mL [22]: 11.2 mm
zone of inhibition at 70 µg/mL [23]: 13.2 mm
zone of inhibition at 70 µg/mL [24]: 12.2 mm
zone of inhibition at 30 µg/mL [25]: 11.1 mm
Activity [26]: Active
Activity [27]: Active
zone of inhibition at 30 µg/mL [28]: 11.1 mm

CCCCN(C)CC(=O)Nn1c(S)nnc1-c1ccc(C)cc1
zone of inhibition at 50 µg/mL [1]: 8.26 mm
zone of inhibition at 30 µg/mL [2]: 8.2 mm
zone of inhibition at 70 µg/mL [3]: 8.13 mm
zone of inhibition at 50 µg/mL [4]: 9.23 mm
zone of inhibition at 30 µg/mL [5]: 6.03 mm
zone of inhibition at 70 µg/mL [6]: 9.26 mm
zone of inhibition at 50 µg/mL [7]: 9.33 mm
zone of inhibition at 30 µg/mL [10]: 7.43 mm
zone of inhibition at 70 µg/mL [11]: 10.1 mm
zone of inhibition at 70 µg/mL [13]: 10.3 mm
zone of inhibition at 50 µg/mL [14]: 8.23 mm
zone of inhibition at 50 µg/mL [16]: 8.56 mm
zone of inhibition at 50 µg/mL [17]: 7.2 mm
zone of inhibition at 70 µg/mL [18]: 9.17 mm
zone of inhibition at 50 µg/mL [19]: 8.2 mm
zone of inhibition at 30 µg/mL [20]: 7 mm
zone of inhibition at 30 µg/mL [22]: 7.26 mm
zone of inhibition at 70 µg/mL [23]: 9.2 mm
zone of inhibition at 70 µg/mL [24]: 9.23 mm
zone of inhibition at 30 µg/mL [25]: 8.16 mm
zone of inhibition at 30 µg/mL [28]: 7.4 mm

CCCCCN(CCCCC)CC(=O)Nn1c(S)nnc1-c1ccc(OC)cc1
zone of inhibition at 50 µg/mL [1]: 12.2 mm
zone of inhibition at 30 µg/mL [2]: 6.23 mm
zone of inhibition at 70 µg/mL [3]: 8.2 mm
zone of inhibition at 50 µg/mL [4]: 11.3 mm
zone of inhibition at 30 µg/mL [5]: 6.17 mm
zone of inhibition at 70 µg/mL [6]: 9.16 mm
zone of inhibition at 50 µg/mL [7]: 7.13 mm
Activity [8]: inactive
Activity [9]: inactive
zone of inhibition at 30 µg/mL [10]: 6.13 mm
zone of inhibition at 70 µg/mL [11]: 12.2 mm
Activity [12]: Active
zone of inhibition at 70 µg/mL [13]: 8.1 mm
zone of inhibition at 50 µg/mL [14]: 8.13 mm
Activity [15]: Active
zone of inhibition at 50 µg/mL [16]: 9.26 mm
zone of inhibition at 50 µg/mL [17]: 7.21 mm
zone of inhibition at 70 µg/mL [18]: 13 mm
zone of inhibition at 50 µg/mL [19]: 7.26 mm
zone of inhibition at 30 µg/mL [20]: 11.2 mm
Activity [21]: inactive
zone of inhibition at 30 µg/mL [22]: 8.97 mm
zone of inhibition at 70 µg/mL [23]: 10.2 mm
zone of inhibition at 70 µg/mL [24]: 8.03 mm
zone of inhibition at 30 µg/mL [25]: 10.1 mm
Activity [26]: Active
Activity [27]: Active
zone of inhibition at 30 µg/mL [28]: 7.2 mm

Clc1ccccc1C(c1ccccc1)(c1ccccc1)n1ccnc1 [CLOTRIMAZOLE]
zone of inhibition at 30 µg/mL [5]: 19.3 mm
zone of inhibition at 30 µg/mL [20]: 22.6 mm
zone of inhibition at 30 µg/mL [25]: 21.9 mm
